Entries after “also recorded” stand apart in the source; their conditions may differ.
Legend:
[1] = system: SARS-CoV-2 (hCoV-19/Egypt/NRC-03/2020); type: cell-based
VERO-E6 cells = assay: MTT cytotoxicity assay (CC50); type: cell-based; conditions: 24 h, in words
Protocol: To assess the half maximal cytotoxic concentration (CC50), stock solutions of the test compounds were prepared in 10% DMSO in ddH2O and diluted further to the working solutions with DMEM. The cytotoxic activity of the extracts was tested in VERO-E6 cells by using the 3-(4,5-dimethylthiazol-2-yl)-2,5-diphenyltetrazolium bromide (MTT) method with minor modifications. Briefly, the cells were seeded in 96 well-plates (100 μl/well at a density of 3×10^5 cells/ml) and incubated for 24 h at 37° C. in 5% CO2. After 24 h, cells were treated with various concentrations of the tested compounds in triplicates. 24 h later, the supernatant was discarded, and cell monolayers were washed with sterile 1× phosphate buffer saline (PBS) 3 times and MTT solution (20 μl of 5 mg/ml stock solution) was add to each well and incubated at 37° C. for 4 h followed by medium aspiration. In each well, the formed formazan crystals were dissolved with 200 μl of acidified isopropanol (0.04 M HCl in absolute isopropanol=0.073 ml HCL in 50 ml isopropanol). Absorbance of formazan solutions was measured at λ max 540 nm with 620 nm as a reference wavelength using a multi-well plate reader. […]

## 7,7′-dihexyl-10,10′-dimethyl-8,8′-dioxo-3,3′-bis(p-tolyl)-4,4′-spirobi[5-oxa-2,7-diaza-3-azonia-4λ^4-cuprabicyclo[4.4.0]deca-1(6),2,9-triene]-9,9′-dicarbonitrile [Complex D2]
[1]
  antiviral activity against SARS-CoV-2: active antiviral activity; also recorded: significant antiviral activity
  inhibitory effect / viral inhibition: acceptable range of viral inhibition
VERO-E6 cells
  toxicity: low toxicity

## 4,4-bis[(dimethylamino)methoxy]-7,7′-dihexyl-10,10′-dimethyl-3,3′-bis(4-nitrophenyl)-8,8′-dioxo-4,4′-spirobi[5-oxa-2,7-diaza-3-azonia-4λ^6-cuprabicyclo[4.4.0]deca-1(6),2,9-triene]-9,9′-dicarbonitrile [Complex D1]
[1]
  antiviral activity against SARS-CoV-2: active antiviral activity; also recorded: significant antiviral activity
  inhibitory effect / viral inhibition: somewhat higher inhibitory effect compared to D2; also recorded: acceptable range of viral inhibition
VERO-E6 cells
  toxicity: low toxicity

From US11786537B2 (priority 2022, dated 2023)
